Data reported in the supplement of paper PMC10307832.

Key:
Experiment in all cases: relative viability (nuclei count vs DMSO), 5 days (fraction); higher = more cells survive
[1] = compound: CC(C)C[C@H](NC(=O)[C@H](CCc1ccccc1)NC(=O)CN1CCOCC1)C(=O)N[C@@H](Cc1ccccc1)C(=O)N[C@@H](CC(C)C)C(=O)[C@@]1(C)CO1 [Carfilzomib] + CC(=O)c1c(C)c2cnc(Nc3ccc(N4CCNCC4)cn3)nc2n(C2CCCC2)c1=O [Palbociclib] (partner 0.5 µM)
Procedure, shortened: (§1)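 Relative viability is defined as nuclei in treated wells over nuclei in vehicle wells. Duplicate plates were run and medians reported. Lung cancer cell lines in 1536-well plates were dosed by pin tool one day after seeding, with one drug or with a fixed anchor-drug dose plus five library-drug doses (not always all listed) in √10 steps, and nuclei were counted after 5 days.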

[2] = compound: C[C@@H](Oc1cc(-c2cnn(C3CCNCC3)c2)cnc1N)c1c(Cl)ccc(F)c1Cl [Crizotinib] + Cc1nc(NC(=O)N2CCC[C@H]2C(N)=O)sc1-c1ccnc(C(C)(C)C(F)(F)F)c1 [Alpelisib] (partner 2 µM)
Procedure, shortened: as §1

[3] = compound: CC(C)C[C@H](NC(=O)[C@H](CCc1ccccc1)NC(=O)CN1CCOCC1)C(=O)N[C@@H](Cc1ccccc1)C(=O)N[C@@H](CC(C)C)C(=O)[C@@]1(C)CO1 [Carfilzomib] + CCNC(=O)c1noc(-c2cc(C(C)C)c(O)cc2O)c1-c1ccc(CN2CCOCC2)cc1 [Luminespib] (partner 0.01 µM)
Procedure, shortened: as §1

[4] = compound: C[C@@H](Oc1cc(-c2cnn(C3CCNCC3)c2)cnc1N)c1c(Cl)ccc(F)c1Cl [Crizotinib] + NC(=O)Nc1cc(-c2cccc(F)c2)sc1C(=O)N[C@H]1CCCNC1 [AZD7762] (partner 0.2 µM)
Procedure, shortened: as §1

Cell Line	relative viability ([1]; first compound 0.001 µM)	relative viability ([1]; first compound 0.003162 µM)	relative viability ([1]; first compound 0.01 µM)	relative viability ([1]; first compound 0.03162 µM)	relative viability ([1]; first compound 0.1 µM)	relative viability ([2]; first compound 0.03162 µM)	relative viability ([2]; first compound 0.1 µM)	relative viability ([2]; first compound 0.3162 µM)	relative viability ([2]; first compound 1 µM)	relative viability ([3]; first compound 0.001 µM)	relative viability ([3]; first compound 0.003162 µM)	relative viability ([3]; first compound 0.01 µM)	relative viability ([3]; first compound 0.03162 µM)	relative viability ([3]; first compound 0.1 µM)	relative viability ([4]; first compound 0.01 µM)	relative viability ([4]; first compound 0.03162 µM)	relative viability ([4]; first compound 0.1 µM)	relative viability ([4]; first compound 0.3162 µM)	relative viability ([4]; first compound 1 µM)	relative viability ([2]; first compound 0.01 µM)
COR-L 105	0.413	0.414	0.35	0.317	0.329	0.872	0.972	0.88	0.828	0.721	0.737	0.788	0.503	0.236						
NCI-H1623										0.466	0.527	0.563	0.59	0.345						
SW 900		0.51	0.288	0.19	0.186					0.164	0.196	0.213	0.172	0.149	0.54	0.627	0.616	0.663	0.617	
NCI-H2228	0.466	0.886	0.557	0.104	0.105	0.799	0.769	0.451	0.288	0.145	0.152	0.161	0.123	0.144						0.666
NCI-H2009	0.186	0.275	0.201	0.0584	0.0475	1.16		1.12	1.09	1.1	1.06	1.03	1.08	0.121						1.16
NCI-H1299						1.03	0.999	1.13	1											1.12
COR-L23	0.29	0.305	0.211	0.0606	0.064	0.77	0.659	0.758	0.665	0.665	0.681	0.557	0.0931	0.0743						0.81
NCI-H520	0.187	0.217	0.162	0.133	0.144	0.92	0.891	1.07	0.962	0.231	0.227	0.18	0.22	0.247						0.726
ChaGo-K-1	0.926	0.931	0.907	0.313	0.153					0.581	0.747	0.587	0.523	0.171	0.83	0.841	0.839	0.711	0.905	
HCC-366	0.374	0.361	0.396	0.327	0.0404	0.485	0.382		0.343						0.239	0.324	0.309		0.289	0.547
IA-LM						0.814	0.805	0.737	0.675											0.726
HCC-78	0.431	0.454	0.528	0.439	0.348	0.292	0.299	0.279	0.223						0.657	0.686	0.618	0.572	0.487	0.278
EBC-1						0.823	0.543	0.202	0.269											0.746
NCI-H1703						0.299	0.329	0.364	0.366						0.157	0.172	0.126	0.116	0.125	0.285
